# Source: patent US20260250257A1, “ANTIBACTERIAL AND SYNERGISTIC ACTIVE COMPOUND AND USE THEREOF” (EAST CHINA UNIVERSITY OF SCIENCE AND TECHNOLOGY, priority 2023, published 2026)
# Key:
# Assay type in all cases: cell-based
# [1] = tested on: ATCC13883 strain (Klebsiella pneumoniae); assay: Checkerboard antibacterial synergistic activity test with polymyxin E (FIC); parameters: key: FIC≤0.5 synergy; 0.5–1 additive; 1–2 indifferent; ≥2 antagonism; conditions: combined with polymyxin E
# How it was run: (§1)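 FIC values come from a microdilution checkerboard crossing polymyxin E against the test compound in MH medium, with uninoculated blanks included. Incubation lasts 16 h at 37° C. Scoring: synergy at FIC ≤0.5, additivity between 0.5 and 1, indifference between 1 and 2, antagonism at 2 or above.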
# [2] = tested on: ATCC19606 strain (Acinetobacter baumannii); assay: as above; parameters: key: FIC≤0.5 synergy; 0.5–1 additive; 1–2 indifferent; ≥2 antagonism; conditions: combined with polymyxin E
# How it was run: as §1
# [3] = tested on: ATCC25922 strain (Escherichia coli); assay: as above; parameters: key: FIC≤0.5 synergy; 0.5–1 additive; 1–2 indifferent; ≥2 antagonism; conditions: combined with polymyxin E
# How it was run: as §1
# [4] = tested on: ATCC9027 strain (Pseudomonas aeruginosa); assay: as above; parameters: key: FIC≤0.5 synergy; 0.5–1 additive; 1–2 indifferent; ≥2 antagonism; conditions: combined with polymyxin E
# How it was run: as §1
# [5] = tested on: ATCC13883 strain (Klebsiella pneumoniae); assay: Broth microdilution, antibacterial activity of the compound used alone; conditions: for MIC: read-out: Antibacterial activity of the compound of Formula I, ATCC13883
# Source text: (§2) The broth microdilution method was used to test the antibacterial effects of the compounds of the present invention against various Gram-negative bacterial strains when used alone.
# [6] = tested on: ATCC19606 strain (Acinetobacter baumannii); assay: as above; conditions: for MIC: read-out: Antibacterial activity of the compound of Formula I, ATCC19606
# Source text: as §2
# [7] = tested on: ATCC25922 strain (Escherichia coli); assay: as above; conditions: for MIC: read-out: Antibacterial activity of the compound of Formula I, ATCC25922
# Source text: as §2
# [8] = tested on: ATCC9027 strain (Pseudomonas aeruginosa); assay: as above; conditions: for MIC: read-out: Antibacterial activity of the compound of Formula I, ATCC9027
# Source text: as §2
SMILES,Synergistic activity (FIC value) ATCC13883 [1],Synergistic activity (FIC value) ATCC19606 [2],Synergistic activity (FIC value) ATCC25922 [3],Synergistic activity (FIC value) ATCC9027 [4],"Antibacterial activity of the compound of Formula I, ATCC13883 [5] [µg/mL]","Antibacterial activity of the compound of Formula I, ATCC19606 [6] [µg/mL]","Antibacterial activity of the compound of Formula I, ATCC25922 [7] [µg/mL]","Antibacterial activity of the compound of Formula I, ATCC9027 [8] [µg/mL]",MIC [5] [µg/mL],MIC [6] [µg/mL],MIC [7] [µg/mL],MIC [8] [µg/mL]
NC(N)=Nc1nc(-c2cccc(Oc3ccc(Cl)cc3Cl)c2)cs1 [Compound I-95],0.19,0.38,0.04,0.04,256,256,256,256,–,–,–,–
NC(N)=Nc1nc(-c2cccc(Oc3ccccc3I)c2)cs1 [Compound I-96],0.16,0.03,0.18,0.28,256,256,256,256,–,–,–,–
NC(N)=Nc1nc(-c2cccc(Oc3ccc(I)cc3I)c2)cs1 [Compound I-97],0.13,0.04,0.2,0.28,256,256,256,256,–,–,–,–
COc1ccc(Oc2cccc(-c3csc(N=C(N)N)n3)c2)c(OC)c1 [Compound I-98],0.09,0.31,0.14,0.06,256,256,256,256,–,–,–,–
NC(N)=Nc1nc(-c2cc(Cl)cc(Oc3ccc(Cl)cc3Cl)c2)cs1 [Compound I-99],0.16,0.03,0.18,0.28,256,256,256,256,–,–,–,–
NC(N)=Nc1nc(-c2cc(F)cc(Oc3ccc(Cl)cc3Cl)c2)cs1 [Compound I-100],0.13,0.02,0.15,0.18,256,256,128,256,–,–,–,–
Cc1sc(N=C(N)N)nc1-c1ccccc1Oc1ccccn1 [Compound I-101],1.25,0.25,1.25,0.52,256,256,256,256,–,–,–,–
CCc1sc(N=C(N)N)nc1-c1ccccc1Oc1ccc(N2CCOCC2)cc1 [Compound I-102],1.25,1.25,1.25,0.51,256,256,256,256,–,–,–,–
CS(=O)(=O)c1ccc(Oc2ccccc2-c2nc(N=C(N)N)sc2Cl)cc1 [Compound I-103],1.25,1.25,0.53,1.25,256,256,256,256,–,–,–,–
NC(N)=Nc1nc(-c2cccc(Oc3ccccn3)c2)cs1 [Compound I-104],1.25,0.25,1.25,0.52,–,–,–,–,256,256,256,256
NC(N)=Nc1nc(-c2cccc(Oc3ccc(N4CCOCC4)cc3)c2)cs1 [Compound I-105],1.25,1.25,1.25,0.51,256,256,256,256,–,–,–,–
CS(=O)(=O)c1ccc(Oc2cccc(-c3csc(N=C(N)N)n3)c2)cc1 [Compound I-106],1.25,1.25,0.53,1.25,–,–,–,–,256,256,256,256
NC(N)=Nc1nc(-c2ccc(Sc3ccccc3)cc2)cs1 [Compound I-107],1.25,1.25,0.53,1.25,–,–,–,–,256,256,256,256
Cc1ccc(Sc2ccccc2-c2coc(N=C(N)N)n2)c(C)c1 [Compound I-108],0.16,0.03,0.18,0.28,256,256,256,256,–,–,–,–
NC(N)=Nc1nc(-c2cccc(NC(=O)c3ccccc3)c2)cs1 [Compound I-109],1.25,1.25,0.27,1.25,–,–,–,–,256,256,256,256
